Source: patent US20260256792A1, “TREATMENT OF CHRONIC SPONTANEOUS URTICARIA BY ADMINISTERING (R)-2-[3-[4-AMINO-3-(2-FLUORO-4-PHENOXY-PHENYL)PYRAZOLO[3,4-D]PYRIMIDIN-1-YL]PIPERIDINE-1-CARBONYL]-4-METHYL-4-[4-(OXETAN-3-YL)PIPERAZIN-1-YL]PENT-2-ENENITRILE” (priority 2023, published 2026)

System: moderate-to-severe chronic spontaneous urticaria (CSU)
Test: Phase 2 CSU study: itch severity score over 7 days (ISS7)
Format: in vivo, human
Description: The study comprises a 12 week, randomized, double-blind, placebo-controlled, multi-center, dose-ranging efficacy and safety phase, followed by a 40 week open label extension (OLE) phase (see FIG. 1). The study consists of three phases and an optional OLE phase. […] Clinically, CSU is characterized by the spontaneous and recurrent appearance of pruritic hives. The proposed primary endpoints were the UAS7 at Week 12 in EU and EU reference countries and the ISS7 in the US. Regardless of where a participant was from, all assessments were the same. The UAS7 score is a composite score containing both the HSS7 and the ISS7. This allowed a global assessment of the two key components of urticaria: hives and itch. […] The UAS is a validated PRO measure. […] The daily UAS scores range from 0 to 6 point/day. […] Patients were to complete the UAS using the e-diary. […] The following secondary endpoints were to be analyzed using the same approach as for the primary endpoint: • Change from baseline in UAS7 at Week 4 • Change from baseline in UAS7 at Week 12 (for US and US reference countries) • Change from baseline in ISS7 at Week 12 (except US and US reference countries) • Change from baseline in HSS7 at Week 12

[1] = Week 7, 400 mg TID, Omalizumab-Naïve
[2] = Week 7, 400 mg TID, Prior Omalizumab Use
[3] = Week 8, 400 mg BID, Omalizumab-Naïve
[4] = Week 8, 400 mg BID, Prior Omalizumab Use
[5] = Week 8, 400 mg QPM, Omalizumab-Naïve
[6] = Week 8, 400 mg QPM, Prior Omalizumab Use
[7] = Week 8, 400 mg TID, Omalizumab-Naïve
[8] = Week 8, 400 mg TID, Prior Omalizumab Use
[9] = Week 9, 400 mg BID, Omalizumab-Naïve
[10] = Week 9, 400 mg BID, Prior Omalizumab Use
[11] = Week 9, 400 mg QPM, Omalizumab-Naïve
[12] = Week 9, 400 mg QPM, Prior Omalizumab Use
[13] = Week 9, 400 mg TID, Omalizumab-Naïve
[14] = Week 9, 400 mg TID, Prior Omalizumab Use
[15] = Week 10, 400 mg BID, Omalizumab-Naïve
[16] = Week 10, 400 mg BID, Prior Omalizumab Use

CC(C)(C=C(C#N)C(=O)N1CCC[C@@H](n2nc(-c3ccc(Oc4ccccc4)cc3F)c3c(N)ncnc32)C1)N1CCN(C2COC2)CC1 [rilzabrutinib, (R)-2-[3-[4-amino-3-(2-fluoro-4-phenoxy-phenyl)pyrazolo[3,4-d]pyrimidin-1-yl]piperidine-1-carbonyl]-4-methyl-4-[4-(oxetan-3-yl)piperazin-1-yl]pent-2-enenitrile]
ISS7 Change from baseline Mean (SD) [1]: −8.96 (5.57)
ISS7 Change from baseline Median [1]: −9.00
ISS7 Mean (SD) [1]: 7.14 (5.35)
ISS7 Median [1]: 8.00
ISS7 Percent change from baseline Mean (SD) [1]: −55.24 (31.64) %
ISS7 Percent change from baseline Median [1]: −52.66%
ISS7 Change from baseline Mean (SD) [2]: −9.94 (7.89)
ISS7 Change from baseline Median [2]: −7.33
ISS7 Mean (SD) [2]: 7.06 (6.25)
ISS7 Median [2]: 6.00
ISS7 Percent change from baseline Mean (SD) [2]: −54.94 (32.91) %
ISS7 Percent change from baseline Median [2]: −48.16%
ISS7 Change from baseline Mean (SD) [3]: −8.15 (6.15)
ISS7 Change from baseline Median [3]: −9.00
ISS7 Mean (SD) [3]: 7.33 (6.55)
ISS7 Median [3]: 6.00
ISS7 Percent change from baseline Mean (SD) [3]: −53.11 (38.61) %
ISS7 Percent change from baseline Median [3]: −60.00%
ISS7 Change from baseline Mean (SD) [4]: −11.00 (9.49)
ISS7 Change from baseline Median [4]: −14.00
ISS7 Mean (SD) [4]: 6.20 (8.32)
ISS7 Median [4]: 1.00
ISS7 Percent change from baseline Mean (SD) [4]: −61.52 (49.97) %
ISS7 Percent change from baseline Median [4]: −93.33%
ISS7 Change from baseline Mean (SD) [5]: −6.03 (4.99)
ISS7 Change from baseline Median [5]: −6.00
ISS7 Mean (SD) [5]: 10.72 (5.26)
ISS7 Percent change from baseline Mean (SD) [5]: −36.14 (28.79) %
ISS7 Percent change from baseline Median [5]: −33.68%
ISS7 Change from baseline Mean (SD) [6]: −14.00 (NC)
ISS7 Change from baseline Median [6]: −14.00
ISS7 Mean (SD) [6]: 7.00 (NC)
ISS7 Median [6]: 7.00
ISS7 Change from baseline Mean (SD) [7]: −9.01 (5.43)
ISS7 Change from baseline Median [7]: −9.33
ISS7 Mean (SD) [7]: 7.24 (5.51)
ISS7 Median [7]: 7.00
ISS7 Percent change from baseline Mean (SD) [7]: −55.59 (31.84) %
ISS7 Percent change from baseline Median [7]: −53.49%
ISS7 Change from baseline Mean (SD) [8]: −12.67 (6.71)
ISS7 Change from baseline Median [8]: −14.00
ISS7 Mean (SD) [8]: 4.33 (6.83)
ISS7 Median [8]: 1.50
ISS7 Percent change from baseline Mean (SD) [8]: −77.10 (31.49) %
ISS7 Percent change from baseline Median [8]: −86.61%
ISS7 Change from baseline Mean (SD) [9]: −7.57 (6.14)
ISS7 Change from baseline Median [9]: −8.00
ISS7 Mean (SD) [9]: 7.63 (7.11)
ISS7 Median [9]: 7.00
ISS7 Percent change from baseline Mean (SD) [9]: −51.57 (40.77) %
ISS7 Percent change from baseline Median [9]: −53.33%
ISS7 Change from baseline Mean (SD) [10]: −10.83 (9.53)
ISS7 Change from baseline Median [10]: −15.00
ISS7 Mean (SD) [10]: 6.37 (8.47)
ISS7 Median [10]: 1.00
ISS7 Percent change from baseline Mean (SD) [10]: −60.71 (51.74) %
ISS7 Percent change from baseline Median [10]: −95.24%
ISS7 Change from baseline Mean (SD) [11]: −6.39 (5.27)
ISS7 Change from baseline Median [11]: −5.42
ISS7 Percent change from baseline Mean (SD) [11]: −37.00 (28.06) %
ISS7 Percent change from baseline Median [11]: −33.33%
ISS7 Change from baseline Mean (SD) [12]: 11.00 (NC)
ISS7 Change from baseline Median [12]: −11.00
ISS7 Mean (SD) [12]: 10.00 (NC)
ISS7 Percent change from baseline Mean (SD) [12]: −52.38 (NC) %
ISS7 Percent change from baseline Median [12]: −52.38%
ISS7 Change from baseline Mean (SD) [13]: −9.70 (5.57)
ISS7 Change from baseline Median [13]: −10.00
ISS7 Mean (SD) [13]: 6.68 (5.31)
ISS7 Median [13]: 7.00
ISS7 Percent change from baseline Mean (SD) [13]: −58.56 (30.66) %
ISS7 Percent change from baseline Median [13]: −65.00%
ISS7 Change from baseline Mean (SD) [14]: −12.36 (6.72)
ISS7 Change from baseline Median [14]: −13.92
ISS7 Mean (SD) [14]: 4.64 (6.72)
ISS7 Median [14]: 2.00
ISS7 Percent change from baseline Mean (SD) [14]: −74.49 (30.89) %
ISS7 Percent change from baseline Median [14]: −83.01%
ISS7 Change from baseline Mean (SD) [15]: −7.07 (6.58)
ISS7 Change from baseline Median [15]: −7.58
ISS7 Mean (SD) [15]: 8.17 (7.29)
ISS7 Median [15]: 7.00
ISS7 Percent change from baseline Mean (SD) [15]: −47.10 (43.27) %
ISS7 Percent change from baseline Median [15]: −48.10%
ISS7 Change from baseline Mean (SD) [16]: −9.80 (9.55)
ISS7 Change from baseline Median [16]: −11.00
ISS7 Mean (SD) [16]: 7.40 (8.11)
ISS7 Median [16]: 4.00
ISS7 Percent change from baseline Mean (SD) [16]: −53.71 (50.05) %
ISS7 Percent change from baseline Median [16]: −73.33%
ISS7 Change from baseline Mean (SD) (Week 10, 400 mg QPM, Omalizumab-Naïve): −6.43 (5.26)
